These are literature values, as cited in US20110092532A1 (priority 2009, published 2011).

What is called Tmax is the time at which the peak concentration occurs.

The conditions of data set [1]: rats, after oral ingestion, portal vein not shunted.
For data set [2], the system named is healthy volunteers. The settings on record: healthy male volunteers, no anti-emetic drugs.
For data set [3], the system named is patients with motor fluctuations.
In data set [4] the test system is Cat. Particulars: subcutaneous.
Data set [5] deals with Dog. The settings on record: in vivo, sc.
[6] abbreviates: SL apomorphine, three patients with motor fluctuations.

Where two headings read alike, the source gives them in different places.

For `CN1CCc2cccc3c2[C@H]1Cc1ccc(O)c(O)c1-3` [apomorphine], the “tissue levels of apomorphine” value in data set [1] is on record as “not detectable”. Besides, in data set [2], the “amount of intravenous apomorphine which will reliably induce emesis” value was 2.5 mg. The Tmax by setting is: (intranasal route) 23 min; (subcutaneous route) 18 min. Further, the lag time runs as follows: (intranasal route) 2.8 min; (subcutaneous route) 3.9 min. Also, the duration of effect in data set [3] (setting [6]) is 15 to 100 min. For the same compound, in data set [3] (setting [6]), the latency to effect is 20 to 40 min. In addition, the “"off" periods” value in data set [3] (one patient, SL apomorphine as adjunct with levodopa, during one month) is “large decrease”. Moreover, the entries for the “Reversible Toxicity Seen” value in data set [4] and in data set [5] were 136 mg/kg and 36 to 71 mg/kg, respectively.
